Assays:
[1] = system: Helicoverpa armigera; assay: Helicoverpa armigera diet incorporation method; type: in vivo; conditions: third instar larvae, dead and moribund combined, 96 h after release
Experimental: (§1) Test Solutions were Prepared According to the Procedure Described Herein Below (500 PPM):
(§2) • 1. Eppendorf Vortex mixer (ThermoMixer C) and 1.5 mL Eppendorf tubes • 2. Zirconia (Zirconium-Yttrium) beads having diameter of 0.8 to 1.0 mm • 3. Microscope • 4. Beaker 100 mL • 5. Micro-pipette Reagents: • 1. Surfactant Solution • 2. De-mineralized (DM) Water • 1. Weigh 10 mg of the compound of the present invention to be tested in an Eppendorf Tube. • 2. Add 200 mg of the Surfactant Solution into the tube. • 3. Add 600 mg of Zirconia beads into the above mixture. • 4. Fix the tube in Eppendorf Vortex mixer and start vortexing at 2000 rpm. • 5. Mix on Vortex mixer for 30 minutes. After 30 minutes, observe the sample over a microscope at 400× resolution. • 6. If the Maximum particle size is more than 5 μm or average particle size is more than 2 μm or the particle size distribution is uneven, continue vortexing for another 30 minutes and again check the particle size using the microscope. Continue till the average particle size is below 2 microns. • 7. When the required particle size is achieved, add 1.0 mL DM water into the tube, close the cap, shake the tube thoroughly and transfer the contents, along with the beads, into a beaker. • 8. To rinse the tube, add another 1.0 mL of DM water into the tube, close the cap, shake well and transfer this into the same beaker. • 9. Repeat Step no. 8 one more time so that the tube is rinsed well and the compound of the present invention to be tested is transferred to the beaker. • 10. Add 16.8 mL of DM water into the beaker and stir well. • 11. The homogeneous dispersion can then be decanted into a glass vial, immediately, to separate the Zirconia beads. • 12. Immediately use this sample for biological testing. • 13. Further dilutions can be prepared by taking appropriate quantity of the aliquot of Step 10, immediately after stirring, and diluting as per requirement. The sample solution must be well mixed just before biological testing.
Diet incorporation method was used, in which and semi-synthetic diet was incorporated into the test solution when the temperature is approximately 50° C. in the bioassay containers and stirred thoroughly for properly mixing and then was allowed to cool for 30 min. The solidified diet was cut into equal pieces, and then each piece was transferred in one cell in Bio-assay trays. A single third instar starved larva was released into each of these cells of bioassay trays and the tray was covered with the lid. The bio-assay trays were kept under laboratory conditions at a temperature of 25° C. and Relative Humidity of 70%. Observations on dead, moribund and live larvae were recorded at 96 h after the release of larvae. Percent mortality was calculated by combining dead and moribund larvae. The following compound numbers

[2] = system: Plutella xylostella; assay: whole plant or invertebrate; type: in vivo; conditions: foliar, cabbage leaf dip, second instar larvae, dead and moribund combined, 72 h after release
Experimental: as §1, §2
Leaf dip method was used for screening, wherein the required quantity of the compounds were weighed and dissolved in the test solution into the tube and vortex at 2000 rpm with Zirconia beads for 90 min for proper mixing, then mixed with 0.01% Triton-X solution to get the desired test concentration. Cabbage leaves were dipped in the solution for 10 seconds, shade dried for 20 min and then transferred to bioassay trays. Single second instar larva was released into each cell and the tray was covered with lid. The bio-assay trays were kept under laboratory conditions at a temperature of 25° C. and relative humidity of 70%. Observations on dead, moribund and live larvae were recorded at 72 h after the release. Percent mortality was calculated by combining dead and moribund larvae. The following compound num.

Row | SMILES | mortality at 300 ppm [1] | mortality at 300 ppm [2]
1 | CONC(=O)c1c(NC(=O)c2cc(N3CC(F)(F)C3)nn2-c2ncccc2Cl)c(C)cc2ccnn12 [Compound 84, 6-(1-(3-chloropyridin-2-yl)-3-(3,3-difluoroazetidin-1-yl)-1H-pyrazole-5-carboxamido)-N-methoxy-5-methylpyrazolo[1,5-a]pyridine-7-carboxamide] | > 70% | > 70%
2 | Cc1cc2ccnn2c(C(=O)NCC(F)(F)F)c1NC(=O)c1cc(OCC(F)(F)F)nn1-c1ncccc1Cl [Compound 114, 6-(1-(3-chloropyridin-2-yl)-3-(2,2,2-trifluoroethoxy)-1H-pyrazole-5-carboxamido)-5-methyl-N-(2,2,2-trifluoroethyl)pyrazolo[1,5-a]pyridine-7-carboxamide] | > 70% | > 70%
3 | CCCNC(=O)c1c(NC(=O)c2cc(Cn3nnc(C(F)(F)F)n3)nn2-c2ncccc2Cl)c(Cl)cc2ccnn12 [Compound 155, 5-chloro-6-(1-(3-chloropyridin-2-yl)-3-((5-(trifluoromethyl)-2H-tetrazol-2-yl)methyl)-1H-pyrazole-5-carboxamido)-N-propylpyrazolo[1,5-a]pyridine-7-carboxamide] | > 70% | –
4 | COCCNC(=O)c1c(NC(=O)c2cc(OC3CSC3)nn2-c2ncccc2Cl)c(C)cc2ccnn12 [Compound 161, 6-(1-(3-chloropyridin-2-yl)-3-(thietan-3-yloxy)-1H-pyrazole-5-carboxamido)-N-(2-methoxyethyl)-5-methylpyrazolo[1,5-a]pyridine-7-carboxamide] | > 70% | –
5 | Cc1cc2ccnn2c(C(=O)NC2(C)CC2)c1NC(=O)c1cc(Br)nn1-c1ncccc1Cl [Compound 172, 6-(3-bromo-1-(3-chloropyridin-2-yl)-1H-pyrazole-5-carboxamido)-5-methyl-N-(1-methylcyclopropyl)pyrazolo[1,5-a]pyridine-7-carboxamide] | > 70% | –
6 | Cc1cc2ccnn2c(C(=O)NCC(C)(C)C)c1NC(=O)c1cc(Br)nn1-c1ncccc1Cl [Compound 175, 6-(3-bromo-1-(3-chloropyridin-2-yl)-1H-pyrazole-5-carboxamido)-5-methyl-N-neopentylpyrazolo[1,5-a]pyridine-7-carboxamide] | > 70% | –
7 | Cc1cc2ccnn2c(C(=O)NC(C)C(C)C)c1NC(=O)c1cc(Br)nn1-c1ncccc1Cl (stereo not shown) [Compound 191, 6-(3-bromo-1-(3-chloropyridin-2-yl)-1H-pyrazole-5-carboxamido)-5-methyl-N-(3-methylbutan-2-yl)pyrazolo[1,5-a]pyridine-7-carboxamide] | > 70% | –
8 | Cc1cc2ccnn2c(C(=O)NCC2CCCC2)c1NC(=O)c1cc(Br)nn1-c1ncccc1Cl [Compound 194, 6-(3-bromo-1-(3-chloropyridin-2-yl)-1H-pyrazole-5-carboxamido)-N-(cyclopentylmethyl)-5-methylpyrazolo[1,5-a]pyridine-7-carboxamide] | > 70% | –
9 | COc1cc(C(=O)Nc2c(C)cc3ccnn3c2C(=O)NCc2nccs2)n(-c2ncccc2Cl)n1 [Compound 204, 6-(1-(3-chloropyridin-2-yl)-3-methoxy-1H-pyrazole-5-carboxamido)-5-methyl-N-(thiazol-2-ylmethyl)pyrazolo[1,5-a]pyridine-7-carboxamide] | > 70% | –
10 | COc1cc(C(=O)Nc2c(C)cc3ccnn3c2C(=O)NCCC(C)C)n(-c2ncccc2Cl)n1 [Compound 211, 6-(1-(3-chloropyridin-2-yl)-3-methoxy-1H-pyrazole-5-carboxamido)-N-isopentyl-5-methylpyrazolo[1,5-a]pyridine-7-carboxamide] | > 70% | –
11 | COc1cc(C(=O)Nc2c(C)cc3ccnn3c2C(=O)NCC2CCCCO2)n(-c2ncccc2Cl)n1 (stereo not shown) [Compound 213, 6-(1-(3-chloropyridin-2-yl)-3-methoxy-1H-pyrazole-5-carboxamido)-5-methyl-N-((tetrahydro-2H-pyran-2-yl)methyl)pyrazolo[1,5-a]pyridine-7-carboxamide] | > 70% | –

Source: patent US12024510B2, “Pyrazolopyridine-diamides, their use as insecticide and processes for preparing the same” (PI INDUSTRIES LTD., priority 2017, dated 2024)
